Data taken from patent publication US11447638B2, “Acetalanthraquinone derivatives useful for cellular staining” (BIOSTATUS LIMITED, priority 2016, dated 2022).

Key:
[1] = test system: MCF7; test: MTT cellular viability (growth inhibition) assay, MCF7; format: cell-based; conditions: Homo sapiens, 0.25-100 μM, 72 h, Table 3
Protocol: (§1) The viability of A549 or MCF7 in response to compounds was determined using the MTT (3-(4,5-dimethylthiazolyl-2-)-2, 5-diphenyltetrazolium bromide) assay according to the protocol set out in Mosmann T., Rapid colorimetric assay for cellular growth and survival: application to proliferation and cytotoxicity assays. Journal of immunological methods 1983; 65:55-63.
(§2) Initially, cells were seeded into a rounded-bottom 96 well plate (Corning) at six different cell seeding densities (0.5×104, 1×104, 2×104, 3×104, 4×104, and 5×104) per mL of R10 media (cells/mL) in order to optimise the assay and establish the most suitable seeding assay. Concentration of 1×10^4 cells/mL was determined to be the optimum seeding density for both cell lines for 96 h total incubation. A control lane contained supplemented R10 only. The 96 well plates were incubated overnight at 37° C., 5% CO2 and 100% humidity to allow cell adhesion. Cells were then treated respectively with novel AAQs (0.25-100 μM) or growth inhibition (IC50) of compounds of the invention was studied against MCF7 and A549 cancer cell lines. Compounds were tested with a concentration range between 0.25 and 100 μM for 72 h and doxorubicin, as positive cytotoxic control, was tested in parallel at the same doses.

[2] = test system: A549; test: MTT cellular viability (growth inhibition) assay, A549; format: cell-based; conditions: Homo sapiens, 0.25-100 μM, 72 h, Table 3
Protocol: as §1, §2

[3] = test system: U-2 OS cells; test: Confocal laser scanning microscopy (CLSM) localisation analysis; format: cell-based, human; conditions: 30 min incubation, Ex 637 nm, Em >665 nm, FIG. 4 and 5
Protocol: Confocal laser scanning microscopy (CLSM) was used to analyse the localisation of compounds BST-100, BST-101 and BST-106 with the U-2 OS cells, as it permitted the acquisition of volume limited optical sections through the cell and media. Excitation (637 nm) and emission (>665 nm) values for the probe analysis were the optimal conditions. The data sets obtained were processed and assembled into a single maximum projection image.
The patterns were analysed after 30 min incubation at different z depths and eliminating the solution background. The nucleus/cytoplasm ratio was calculated to quantify the localisation of the probe per cell.
A Radiance CLSM (BioRad Microscience) was used attached to an inverted Nikon microscope. Image acquisition was performed using excitation (637 nm) and emission (>665 nm) wavelengths. The histogram plot reports the nucleus/cytoplasm index to determine DNA binding in live cells. The calibration bar represents 10 μm.
The compounds BST-108, BST-109 were analysed in the same way.

[4] = test system: fixed human osteosarcoma U-2 OS cells; test: Labelling of fixed cells, wide-field fluorescence microscopy; format: cell-based; conditions: 20 μM, 1 h exposure in PBS, FIG. 2
Protocol: Cells were seeded in a 24 well coverslip bottomed-plate, cultured overnight in McCoys media. 24 or 48 hours later the cells were washed gently with 3×2 mL PBS per well. The PBS was removed and 0.5 mL of 4% paraformaldehyde solution [a 4% paraformaldehyde solution in PBS was made fresh each time from a 16% stock solution (Thermo Fisher Scientific)] was added in each well and cells were incubated for 30 min. The paraformaldehyde was removed and cells were washed 3×2 mL PBS per well. 1 mL of PBS or HEPES was added to each well.
(§3) Before analysis, cells were incubated at 37° C. in the dark for the period designated. Samples were analysed directly without any further washing step. For live cell labelling cells were seeded, plated in a similar way, into a similar multi-well dish for optimal optical performance and could be used across all microscope platforms.
(§4) This basic protocol was the standard for testing the patterns of AAQ agents at 20 μM, compared to 20 μM of DRAQ5 as the benchmark reference (both in terms of cellular location and ability to detect the red fluorescence).
Low resolution wide-field fluorescence microscopy was used to evaluate cell labelling in fixed human osteosarcoma U-2 OS cells. The system was an Axiovert 100 microscope (Carl Zeiss, Welwyn Garden City, UK) ×10 0.3 NA air objective lens and an ORCA-ER CCD camera (Hamamatsu, Reading, UK). Illumination was controlled by a shutter in front of the transmission lamp. Image capture was controlled using Metamorph software. This evaluates the ability of the compounds to label cellular compartments without active uptake or efflux prohibiting delivery into the given cell. Image collection was performed after 1 h of exposure to probes in PBS. The calibration bar represents 50 μm.

[5] = test system: A549 cells; test: Flow cytometry analysis of cell uptake before/after hydrolysis; format: cell-based, human; conditions: 20 μM, 30 min; for % ile (25): low loader cell population
Protocol: Flow cytometry analysis was performed to evaluate the effect of pre-treatment with HCl to generate an active aldehyde on the cell uptake properties. A549 cells were incubated for 30 min with compounds of Formula (I) and its hydrolysed forms (20 μM) prior to analysis. The rate of uptake was tested in A549 cell culture media and in Aldefluor buffer, containing the MDR-blocker verapamil (Pearce and Bonnet 2007), to evaluate the effect in uptake with/without the Aldefluor assay system. Analysis was conducted in the viable subset of cells, corresponding to ˜95% of the total amount under investigation.
Aldefluor buffer contained verapamil vs. cell media. The cells were incubated with 20 μM of the respective AAQ/HAAQs (30 min) before analysis
Statistical analysis of A549 uptake before/after hydrolysis was also studied. Experiments were performed in cell media versus Aldefluor buffer. Data were processed using FlowJo software (Tree Star). DRAQ5 was used to set the dynamic range and as control dye and empty cells were used to determine auto-fluorescence.

[6] = test system: A549 live cells; test: Loading of A549 live cells, wide-field fluorescence microscopy; format: cell-based, human; conditions: 20 μM, 30 min incubation, FIG. 3
Protocol: as §3, §4
Low resolution wide-field fluorescence microscopy was used to evaluate cell uptake and localisation of the probe compounds. The system was an Axiovert 100 microscope (Carl Zeiss, Welwyn Garden City, UK) ×10 0.3 NA air objective lens and an ORCA-ER CCD camera (Hamamatsu, Reading, UK). Illumination was controlled by a shutter in front of the transmission lamp. Image capture was controlled using Metamorph software. Human non-small cell lung cancer A549 cell line was used as the cell model to determine whether variation of the probe loading and localisation occurred in cell population sustaining a “side population” (SP) (Smith P J, Wiltshire M, Chappell S C, Cosentino L, Burns P A, Pors K, Errington R J. Kinetic analysis of intracellular Hoechst 33342—DNA interactions by flow cytometry: misinterpretation of side population status? Cytometry A 2013; 83:161-9) with a known capacity to efflux xenobiotic molecules, including the DNA dye Hoechst 33342.
Cells were incubated for 30 min with each compound and then images were collected at a 30 ms exposure time using low resolution wide-field fluorescence microscopy. Using an Axiovert 100 microscope (Carl Zeiss, Welwyn Garden City, UK) ×10 0.3 NA air objective lens and an ORCA-ER CCD camera (Hamamatsu, Reading, UK). Illumination was controlled by a shutter in front of the transmission lamp. Image capture was controlled using Metamorph software. The calibration bar represents 50 μm.

[7] = Absorption and fluorescence spectra of compounds in PBS or HEPES; format: physicochemical; conditions: for peak excitation wavelength: excitation wavelength used for fluorescence spectra of FIG. 1A/1B; for fluorescence emission, 540 nm (Ex in PBS): excited at 540 nm; for fluorescence emission, 540 nm (Ex in PBS) / fluorescence emission, λ1 nm (Ex in HEPES) / fluorescence emission, λ1 nm (Ex in PBS): 20 μM; for fluorescence emission, λ1 nm (Ex in HEPES) / fluorescence emission, λ1 nm (Ex in PBS): excited at absorption peak 1 (λ1)
Protocol: The compounds were exited at 540 nm and at the wavelength of their absorption peak 1 (λ1 nm). The far-red fluorescent DNA dye DRAQ5 was used as reference.
Compounds were dissolved in DMSO (Sigma) to 20 mM stock concentration. DRAQ5 (Biostatus Ltd) was used as a control anthraquinone agent dissolved in deionised water. Working solutions were prepared in PBS (phosphate buffered saline; Sigma) or HEPES (4-(2-hydroxyethyl)-1-piperazineethanesulfonic acid; Sigma) at 20 or 40 μM. Probe solutions (20 μM), respectively in PBS or HEPES, were pipetted into a 1 mL quartz cuvette (Thermo Fisher Scientific). After obtaining baseline spectra in relevant buffer to zero the instrument, absorbance measurements were obtained using a Beckmann Coulter DU 800 UV/Visible spectrophotometer. The excitation wavelengths were scanned from 280 to 800 nm. Fluorescent spectral scans were performed using a Perkin Elmer LS-50B Luminescence spectrophotometer. To obtain emission scans, the excitation wavelength was set accordingly to the maximum values for each agent or another designated excitation wavelength that matches typical laser lines; and the emission wavelength were scanned from 400 nm to 900 nm in 1 nm increments. A Xenon flash lamp was used as the light source, with the lamp energy set to high. For each data point ten measurements were acquired with the photomultiplier tube sensitivity set at 125.
Compounds were excited at a wavelength corresponding to the first absorbance peak 1 (FIG. 1A and FIG. 1B show absorption (line) and fluorescence (dots) spectra of compounds; both are normalised to peak value.

[8] = test system: MCP1; test: Further tests against cell lines, MCP1; format: cell-based; conditions: ratio to A2780
Protocol: (§5) Further tests were carried out against A2780, 2780AD and MCP1 cell lines.

[9] = test system: 2780/cp70; test: Further tests against cell lines, 2780/cp70; format: cell-based; conditions: ratio to A2780
[10] = test system: 2780AD; test: Further tests against cell lines, 2780AD; format: cell-based; conditions: ratio to A2780
Protocol: as §5

[11] = solution: Aldefluor buffer with verapamil

With `COC(CCCCNc1ccc(NCCN(C)C)c2c1C(=O)c1ccccc1C2=O)OC` [BST-106, 1-(5,5-Dimethoxypentylamino)-4-(2-(dimethylamino)ethylamino) anthracene-9,10-dione] the IC50 [1] was 11.3 µM, the IC50 [2] was 11.7 µM and the “subcellular localisation by CLSM” value [3] was “additional nuclear signal”. The “fluorescence brightness / background in fixed cells” value [4] was “very bright background”, the “staining pattern in fixed cells” value [4] was “diffuse cytoplasmic staining, with some perinuclear and nucleoli labelling” and the “Median (fluorescence, uptake)” value [5, 11] was 96.13. For the same molecule, the “% ile (25)” value [5, 11] was 81.66, the “Median (fluorescence, uptake)” value ([5]; solution: media) was 101.48 and the “% ile (25)” value ([5]; solution: media) was 84.64. For the same molecule, the “fluorescence brightness / background in live cells” value [6] was “high background”, the “staining pattern in live cells” value [6] was “heterogeneous cytoplasmic staining” and the peak excitation wavelength [7] was 584 nm. The “fluorescence emission, 540 nm (Ex in PBS)” value [7] was 670 nm, the “fluorescence emission, λ1 nm (Ex in HEPES)” value [7] was 664 nm and the “fluorescence emission, λ1 nm (Ex in PBS)” value [7] was 660 nm.

For `COC(CNCCCCNc1ccc(NCCN(C)C)c2c1C(=O)c1c(O)ccc(O)c1C2=O)OC` [BST-304, 1-((4-((2,2-dimethoxyethyl)amino)butyl)amino)-4-((2-(dimethylamino)ethyl)amino)-5,8-dihydroxyanthracene-9,10-dione], the “RF (MCP1)” value [8] was 0.36, the “RF (2780/cp70)” value [9] was 0.07 and the “RF (2780AD)” value [10] was 11.8.

For `N.N.[Cl][Pt][Cl]` [Cisplatin, reference compound], the “RF (MCP1)” value [8] was 1.26, the “RF (2780/cp70)” value [9] was 5.37 and the “RF (2780AD)” value [10] was 4.6.

For `COC(CNCCNc1ccc(NCCN(C)C)c2c1C(=O)c1c(O)ccc(O)c1C2=O)OC` [BST-302, 1-((2-((2,2-dimethoxyethyl)amino)ethyl)amino)-4-((2-(dimethylamino)ethyl)amino)-5,8-dihydroxyanthracene-9,10-dione], the “RF (MCP1)” value [8] was 0.61, the “RF (2780/cp70)” value [9] was 0.32 and the “RF (2780AD)” value [10] was 81.4.

In the case of `COC(CNCCCNc1ccc(NCCN(C)C)c2c1C(=O)c1c(O)ccc(O)c1C2=O)OC` [BST-303, 1-((3-((2,2-dimethoxyethyl)amino)propyl)amino)-4-((2-(dimethylamino)ethyl)amino)-5,8-dihydroxyanthracene-9,10-dione], the “RF (MCP1)” value [8] is reported as 0.36, the “RF (2780/cp70)” value [9] is reported as 0.19 and the “RF (2780AD)” value [10] is reported as 9.7.

For `COC(CNCCCCCCNc1ccc(NCCCCCCNCC(OC)OC)c2c1C(=O)c1c(O)ccc(O)c1C2=O)OC` [BST-300], the “RF (MCP1)” value [8] was 0.37, the “RF (2780/cp70)” value [9] was 0.17 and the “RF (2780AD)” value [10] was 1.07.

In the case of `COC(CNC(=O)CCNc1ccc(NCCN(C)C)c2c1C(=O)c1c(O)ccc(O)c1C2=O)OC` [BST-108, N-(2,2-Dimethoxyethyl)-3-(4-(2-(dimethylamino)ethylamino)-5,8-dihydroxy-9,10-dioxo-9,10-dihydroanthracen-1-ylamino)propanamide], the IC50 [1] is reported as 1.44 µM, the IC50 [2] is reported as 1.7 µM and the “subcellular localisation by CLSM” value [3] is reported as “strong nuclear uptake and perinuclear staining, with possible ER accumulation”. The “staining pattern in fixed cells” value [4] was “heterogeneity in cytoplasmic staining and positive spots in the nuclei”, the “Median (fluorescence, uptake)” value [5, 11] was 67.08 and the “% ile (25)” value [5, 11] was 57.65. The “Median (fluorescence, uptake)” value ([5]; solution: media) was 75.48, the “% ile (25)” value ([5]; solution: media) was 65.32 and the “fluorescence brightness / background in live cells” value [6] was “very bright cellular fluorescence”. For the same molecule, the peak excitation wavelength [7] was 610 nm, the “fluorescence emission, 540 nm (Ex in PBS)” value [7] was 692 nm and the “fluorescence emission, λ1 nm (Ex in HEPES)” value [7] was 684 nm. For the same molecule, the “fluorescence emission, λ1 nm (Ex in PBS)” value [7] was 685 nm.

With `COC(CNCCCCCNc1ccc(NCCN(C)C)c2c1C(=O)c1c(O)ccc(O)c1C2=O)OC` [BST-305, 1-((5-((2,2-dimethoxyethyl)amino)pentyl)amino)-4-((2-(dimethylamino)ethyl)amino)-5,8-dihydroxyanthracene-9,10-dione] the “RF (MCP1)” value [8] was 0.53, the “RF (2780/cp70)” value [9] was 0.14 and the “RF (2780AD)” value [10] was 5.2.

In the case of `COC(CNCCCCCCNc1ccc(NCCN(C)C)c2c1C(=O)c1c(O)ccc(O)c1C2=O)OC` [BST-301, 1-((6-((2,2-dimethoxyethyl)amino)hexyl)amino)-4-((2-(dimethylamino)ethyl)amino)-5,8-dihydroxyanthracene-9,10-dione], the “RF (MCP1)” value [8] is reported as 0.39, the “RF (2780/cp70)” value [9] is reported as 0.10 and the “RF (2780AD)” value [10] is reported as 2.8.
